Here are results for 32 compounds from patent US10307413B2, “Tetrahydro- and dihydro-isoquinoline PRMT5 inhibitors and uses thereof” (Epizyme, Inc., priority 2013, dated 2019).

A value given as a limit tells only on which side of the number the result lay.

In test [1] the target is PRMT5/MEP50 (Homo sapiens (Human), UniProt O14744). The test can be described thus: PRMT5 Biochemical Assay (PRMT5/MEP50 enzyme assay on peptide substrate, 3H-SAM Flashplate). The following applies: PRMT5 biochemical assay. The gist of the method: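 Radiometric methylation of a biotin-tagged H4(1-15) peptide by human PRMT5/MEP50 from baculovirus/Sf9, with ³H-SAM incorporation read on streptavidin Flashplates. Buffer: Bicine pH 7.6, TCEP, BSG, Tween20; compound preincubated 30 min at 25 °C; stopped with 600 µM final unlabeled SAM. DMSO and SAH controls; IC50 from fitted % inhibition.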

For test [2], the system named is symmetric di-methyl arginine in Z-138 cells. Briefly: Z-138 Methylation Assay (In Cell Western for symmetric di-methyl arginine and DNA content). Type of test: cell-based. The following applies: Homo sapiens, In Cell Western methylation, read-out: ICW EC50. The gist of the method:
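Z-138 cells (50,000 cells/mL) treated with compound 96 h at 37 °C, then fixed and stained for symmetric di-methyl arginine (800 nm) with DRAQ5 DNA counterstain (700 nm) on Licor Odyssey.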

For test [3], the system named is Z-138 cell line. Briefly: Z-138 Proliferation Assay (Cell Titer Glo, 5 days). Type of test: cell-based. The conditions noted are these: Homo sapiens, 120 h; Z-138 cells, 5 days, Cell Titer Glo; read-out: Proliferation EC50. The gist of the method: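 Z-138 cells exposed 5 days at 37 °C, 5% CO2 to nine-point 3-fold dilutions (final top 20 μM, 0.2% DMSO), in triplicate. Viability read as ATP by CellTiter-Glo luminescence; IC50 from 4-parameter fit of normalized dose-response curves.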
For orientation: Cellular ATP, detected with luciferase, serves as a proxy for viable cell number.

Chain of PRMT5/MEP50 (O14744 other isoform, or with tags, fused parts or gaps): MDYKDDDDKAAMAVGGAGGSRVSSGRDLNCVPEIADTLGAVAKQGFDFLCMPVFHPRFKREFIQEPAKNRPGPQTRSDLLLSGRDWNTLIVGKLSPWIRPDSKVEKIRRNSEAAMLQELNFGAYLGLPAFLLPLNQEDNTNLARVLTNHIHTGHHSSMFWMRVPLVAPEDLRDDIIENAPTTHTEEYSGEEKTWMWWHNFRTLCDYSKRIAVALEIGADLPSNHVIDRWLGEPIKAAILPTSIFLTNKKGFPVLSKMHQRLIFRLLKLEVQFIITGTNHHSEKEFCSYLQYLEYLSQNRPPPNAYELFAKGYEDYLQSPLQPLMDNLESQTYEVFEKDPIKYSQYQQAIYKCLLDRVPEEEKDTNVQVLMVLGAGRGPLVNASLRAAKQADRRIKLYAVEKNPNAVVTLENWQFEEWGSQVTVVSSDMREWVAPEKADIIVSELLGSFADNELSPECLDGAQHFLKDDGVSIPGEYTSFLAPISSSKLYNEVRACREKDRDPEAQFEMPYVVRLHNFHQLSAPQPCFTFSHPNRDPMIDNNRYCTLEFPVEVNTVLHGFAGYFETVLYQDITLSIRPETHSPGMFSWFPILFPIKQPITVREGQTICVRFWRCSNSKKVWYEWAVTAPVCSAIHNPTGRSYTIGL
Chain of PRMT5/MEP50 (Q9BQA1 other isoform, or with tags, fused parts or gaps partner): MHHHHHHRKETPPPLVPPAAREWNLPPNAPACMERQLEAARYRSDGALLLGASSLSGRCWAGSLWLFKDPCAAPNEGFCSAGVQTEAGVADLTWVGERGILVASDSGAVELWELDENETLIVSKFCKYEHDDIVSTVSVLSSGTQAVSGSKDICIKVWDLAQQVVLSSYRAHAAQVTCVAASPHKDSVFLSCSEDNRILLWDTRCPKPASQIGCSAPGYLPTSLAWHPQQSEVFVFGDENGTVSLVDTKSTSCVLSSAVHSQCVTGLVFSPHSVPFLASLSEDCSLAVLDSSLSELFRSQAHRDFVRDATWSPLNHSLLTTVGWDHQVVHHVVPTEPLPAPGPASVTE

With `O=C(NC[C@H](O)CN1CCc2ccccc2C1)c1ccnc(NC2CN(C(=O)C3CC3)C2)c1` [Compound 490], the IC50 in test [1] was < 100 nM. Also, the EC50 in test [2] and in test [3] was < 100 nM in each case.
Turning to `O=C(NC[C@H](O)CN1CCc2ccccc2C1)c1cc(N[C@H]2C[C@@H](O)C2)ncn1` [Compound 491], the IC50 in test [1] is < 100 nM. Further, the EC50 was < 100 nM in test [2] and 101 to 1000 nM in test [3].
Take `CC(NC(=O)c1cc(NC2COC2)ncn1)[C@@H](O)CN1CCc2ccccc2C1` (stereo partly drawn) [Compound 492]: in test [1], the IC50 is < 100 nM. The EC50 was < 100 nM in test [2] and 1000 to 10000 nM in test [3].
Take `CN(C)c1nc(NC2COC2)cc(C(=O)NC[C@H](O)CN2CCc3ccccc3C2)n1` [Compound 494]: the IC50 in test [1] is < 100 nM. Also, the EC50 in test [2] is < 100 nM; in test [3], 101 to 1000 nM.
In the case of `CN(CCO)c1nc(NC2COC2)cc(C(=O)NC[C@H](O)CN2CCc3ccccc3C2)n1` [Compound 495], the IC50 in test [1] was < 100 nM. Further, the EC50 was < 100 nM in test [2] and 101 to 1000 nM in test [3].
Take `COCCN1CCN(c2nc(NC3COC3)cc(C(=O)NC[C@H](O)CN3CCc4ccccc4C3)n2)CC1` [Compound 496]: in test [1], the IC50 is < 100 nM. Also, the EC50 in test [2] and in test [3] was < 100 nM in each case.
With `CC(=O)N1CCN(c2nc(NC3COC3)cc(C(=O)NC[C@H](O)CN3CCc4ccccc4C3)n2)CC1` [Compound 497], the IC50 in test [1] is < 100 nM. Also, the EC50 in test [2] and in test [3] was < 100 nM in each case.
`O=C(NC[C@H](O)CN1CCc2ccccc2C1)c1cc(NC2COC2)nc(N2CCN(C(=O)C3CC3)CC2)n1` [Compound 498]: in test [1], the IC50 is < 100 nM. In addition, the EC50 in test [2] and in test [3] was < 100 nM each time.
As to `CS(=O)(=O)N1CCN(c2nc(NC3COC3)cc(C(=O)NC[C@H](O)CN3CCc4ccccc4C3)n2)CC1` [Compound 499], the IC50 in test [1] was < 100 nM. Moreover, the EC50 in test [2] was < 100 nM; in test [3], 101 to 1000 nM.
Regarding `CC(C)N1CCN(c2nc(NC3CNC3)cc(C(=O)NC[C@H](O)CN3CCc4ccccc4C3)n2)CC1` [Compound 500], in test [1], the IC50 was < 100 nM. The values for the EC50 in test [2] and in test [3] were 101 to 1000 nM and 10000 to 50000 nM, respectively.
As for `COc1nc(NC2CNC2)cc(C(=O)NC[C@H](O)CN2CCc3ccccc3C2)n1` [Compound 501], the IC50 in test [1] was < 100 nM. The EC50 in test [2] fell in the range of 101 to 1000 nM; in test [3], 1000 to 10000 nM.
In the case of `O=C(NC[C@H](O)CN1CCc2ccccc2C1)c1cc(NC2CNC2)nc(N2CCC2)n1` [Compound 502], in test [1], the IC50 was < 100 nM. The results for the EC50 in test [2] and in test [3] were 101 to 1000 nM and 1000 to 10000 nM, respectively.
Take `CCCC(=O)N1CC(Nc2cc(C(=O)NC[C@H](O)CN3CCc4ccccc4C3)ccn2)C1` [Compound 503]: the IC50 in test [1] is < 100 nM. In addition, the EC50 in test [2] and in test [3] was < 100 nM each time.
For the compound `CC(C)CC(=O)N1CC(Nc2cc(C(=O)NC[C@H](O)CN3CCc4ccccc4C3)ccn2)C1` [Compound 504], the IC50 in test [1] was < 100 nM. In addition, the EC50 in test [2] and in test [3] was < 100 nM throughout.
For the compound `CC(C)(C)C(=O)N1CC(Nc2cc(C(=O)NC[C@H](O)CN3CCc4ccccc4C3)ccn2)C1` [Compound 505], the IC50 in test [1] was < 100 nM. The EC50 was < 100 nM in test [2] and 101 to 1000 nM in test [3].
`CNC(=O)[C@H]1C[C@H](Nc2cc(C(=O)NC[C@H](O)CN3CCc4ccccc4C3)ncn2)C1` [Compound 506]: the IC50 in test [1] was < 100 nM. In addition, the EC50 is < 100 nM in test [2] and 101 to 1000 nM in test [3].
Turning to `CN(C)C(=O)[C@H]1C[C@H](Nc2cc(C(=O)NC[C@H](O)CN3CCc4ccccc4C3)ncn2)C1` [Compound 507], the IC50 in test [1] is < 100 nM. Besides, the EC50 was < 100 nM in test [2] and 101 to 1000 nM in test [3].
As to `O=C(NC[C@H](O)CN1CCc2ccccc2C1)c1cc(N[C@H]2C[C@H](C(=O)N3CCC3)C2)ncn1` [Compound 509], the IC50 in test [1] was < 100 nM. Further, the EC50 in test [2] and in test [3] was < 100 nM in each case.
Take `O=C(NC[C@H](O)CN1CCc2ccccc2C1)c1cc(N[C@H]2C[C@H](C(=O)N3CCCCC3)C2)ncn1` [Compound 511]: the IC50 in test [1] was < 100 nM. Besides, the EC50 in test [2] and in test [3] was < 100 nM throughout.
`CNC(=O)[C@H]1C[C@@H](Nc2cc(C(=O)NC[C@H](O)CN3CCc4ccccc4C3)ncn2)C1` [Compound 513]: the IC50 in test [1] is < 100 nM. The EC50 in test [2] is < 100 nM; in test [3] it was 101 to 1000 nM.
With `CN(C)C(=O)[C@H]1C[C@@H](Nc2cc(C(=O)NC[C@H](O)CN3CCc4ccccc4C3)ncn2)C1` [Compound 515], the IC50 in test [1] is < 100 nM. Further, the values for the EC50 in test [2] and in test [3] were < 100 nM and 101 to 1000 nM, respectively.
In the case of `O=C(NC[C@H](O)CN1CCc2ccccc2C1)c1cc(N[C@H]2C[C@@H](C(=O)N3CCC3)C2)ncn1` [Compound 517], the IC50 in test [1] was < 100 nM. The EC50 in test [2] is < 100 nM; in test [3] it was 101 to 1000 nM.
Take `O=C(NC[C@H](O)CN1CCc2ccccc2C1)c1cc(N[C@H]2C[C@@H](C(=O)N3CCCCC3)C2)ncn1` [Compound 519]: in test [1], the IC50 was < 100 nM. Also, the results for the EC50 in test [2] and in test [3] were < 100 nM and 101 to 1000 nM, respectively.
`O=C(NC[C@H](O)CN1CCc2ccccc2C1)c1cc(N[C@H]2C[C@H](O)C2)ncn1` [Compound 521]: in test [1], the IC50 is < 100 nM. For the same compound, the EC50 is < 100 nM in test [2] and 101 to 1000 nM in test [3].
For `CC(C)(C)c1nc(NC2CNC2)cc(C(=O)NC[C@H](O)CN2CCc3ccccc3C2)n1` [Compound 522], the IC50 in test [1] is < 100 nM. Besides, the EC50 in test [2] was < 100 nM; in test [3] it was 1000 to 10000 nM.
In the case of `COC(CNC(=O)c1cc(NC2COC2)ncn1)CN1CCc2ccccc2C1` (stereo not drawn) [Compound 523], the IC50 in test [1] is 1000 to 10000 nM. The EC50 in test [2] is > 1000 nM; in test [3], > 5000 nM.
With `CC(=O)N1CC(Nc2cc(C(=O)NC(C)C(O)CN3CCc4ccccc4C3)ncn2)C1` (stereo not drawn) [Compound 524], the IC50 in test [1] was in the range of 101 to 1000 nM. In addition, the EC50 in test [2] was 101 to 1000 nM; in test [3], > 5000 nM.
As to `CN(C)CCN(C)c1nc(NC2COC2)cc(C(=O)NC[C@H](O)CN2CCc3ccccc3C2)n1` [Compound 525], the IC50 in test [1] is < 100 nM. The EC50 in test [2] was < 100 nM; in test [3], 101 to 1000 nM.
With `O=C(NC[C@H](O)CN1CCc2ccccc2C1)c1cc(NC2COC2)nc(N2CCC2)n1` [Compound 526], in test [1], the IC50 is < 100 nM. Further, the EC50 in test [2] is < 100 nM; in test [3], 101 to 1000 nM.
Consider `CC(C)(C)c1nc(NC2COC2)cc(C(=O)NC[C@H](O)CN2CCc3ccccc3C2)n1` [Compound 527], for which the IC50 in test [1] was < 100 nM. Also, the results for the EC50 in test [2] and in test [3] were < 100 nM and 101 to 1000 nM, respectively.
In the case of `CN(C)CCN(C)c1nc(NC2CNC2)cc(C(=O)NC[C@H](O)CN2CCc3ccccc3C2)n1` [Compound 528], the IC50 in test [1] was < 100 nM. The EC50 in test [2] and in test [3] was 101 to 1000 nM throughout.
As to `CN(C)c1nc(NC2CNC2)cc(C(=O)NC[C@H](O)CN2CCc3ccccc3C2)n1` [Compound 529], the IC50 in test [1] is < 100 nM. Besides, the EC50 in test [2] and in test [3] was 101 to 1000 nM in each case.

The IC50 is the concentration needed to halve the response being measured.
